Test results published in article PMC8881077 (Journal of Enzyme Inhibition and Medicinal Chemistry, 2022).
Several values for one entry are separate records, joined by “and”; a condition that tells them apart may be missing. Equal entries are not always repeated. Where two headings read alike, the source gives them in different places.

Tests used:
huAChE [1] = target: T1, huAChE (Homo sapiens, UniProt P22303); assay: Enzyme kinetic study of huAChE (Lineweaver-Burk); format: biochemical; set-up: AChE from human erythrocytes (Sigma Co.); purchased Sigma Co; host or cells: human erythrocytes; conditions: for type of AChE inhibition: Lineweaver-Burk plot; for Ki: replots of slope versus concentration, read-out: inhibition constant Ki
T1 sequence (P22303 32-617 isoform P22303-2 limits assumed): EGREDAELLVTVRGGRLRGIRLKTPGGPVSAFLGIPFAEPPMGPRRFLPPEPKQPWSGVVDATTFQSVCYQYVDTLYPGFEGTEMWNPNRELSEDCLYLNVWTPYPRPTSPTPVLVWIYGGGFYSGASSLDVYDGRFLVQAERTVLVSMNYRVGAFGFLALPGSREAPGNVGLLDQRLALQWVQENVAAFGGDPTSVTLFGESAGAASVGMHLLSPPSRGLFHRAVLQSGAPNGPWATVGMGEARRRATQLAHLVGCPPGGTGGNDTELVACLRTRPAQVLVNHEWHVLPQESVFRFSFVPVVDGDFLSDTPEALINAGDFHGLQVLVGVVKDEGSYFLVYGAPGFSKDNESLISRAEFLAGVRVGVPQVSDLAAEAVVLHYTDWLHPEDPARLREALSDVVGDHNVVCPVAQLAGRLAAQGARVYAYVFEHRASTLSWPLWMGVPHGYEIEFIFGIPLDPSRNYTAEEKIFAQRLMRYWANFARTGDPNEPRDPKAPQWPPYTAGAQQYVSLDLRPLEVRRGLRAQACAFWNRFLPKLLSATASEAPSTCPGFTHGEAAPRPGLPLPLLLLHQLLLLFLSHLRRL
Source text: An enzyme kinetic study was applied to determine the mechanism of AChE inhibition for compounds 5f and 7k. The lineweaver-Burk double reciprocal plot was used to define the inhibition by plotting the initial velocities of the substrate at the y-axis and increasing concentrations of the substrate at the x-axis[17]^,[19]. […] […].
Figure 3. Enzyme kinetic study on the mechanism of huAChE inhibition by compounds 5f and 7k. […] (D) Representing the plots of slope versus the concentration of 7k for determining the inhibition constants Ki. […] |

[2] = PAMPA-BBB; for Pe: final concentration 100 μg/mL
huAChE [3] = target: T1, huAChE; format: biochemical; set-up: AChE from human erythrocytes (Sigma Co.); purchased Sigma Co; host or cells: human erythrocytes; conditions: for huAChE activity restored: 0.1 × IC50, at 60 min, Figure 2B; for huAChE activity increase when diluted to 0.1 × IC50: Figure 2A, dilution to 0.1 × IC50
Procedure: In order to further explore the reversibility of inhibition, the recovery of huAChE inhibitors inhibition after dilution was carried out with time monitoring.
Data were expressed as the mean ± SEM by three independent experiments.

huBuChE = target: T2, huBuChE (Homo sapiens, UniProt P06276); assay: biochemical; format: biochemical; conditions: from human serum; read-out: IC50 ± SD huBuChE
T2 construct: BuChE from rat serum or human serum (Sigma Co.); purchased Sigma Co; host or cells: human serum
T2 sequence (P06276 29-602): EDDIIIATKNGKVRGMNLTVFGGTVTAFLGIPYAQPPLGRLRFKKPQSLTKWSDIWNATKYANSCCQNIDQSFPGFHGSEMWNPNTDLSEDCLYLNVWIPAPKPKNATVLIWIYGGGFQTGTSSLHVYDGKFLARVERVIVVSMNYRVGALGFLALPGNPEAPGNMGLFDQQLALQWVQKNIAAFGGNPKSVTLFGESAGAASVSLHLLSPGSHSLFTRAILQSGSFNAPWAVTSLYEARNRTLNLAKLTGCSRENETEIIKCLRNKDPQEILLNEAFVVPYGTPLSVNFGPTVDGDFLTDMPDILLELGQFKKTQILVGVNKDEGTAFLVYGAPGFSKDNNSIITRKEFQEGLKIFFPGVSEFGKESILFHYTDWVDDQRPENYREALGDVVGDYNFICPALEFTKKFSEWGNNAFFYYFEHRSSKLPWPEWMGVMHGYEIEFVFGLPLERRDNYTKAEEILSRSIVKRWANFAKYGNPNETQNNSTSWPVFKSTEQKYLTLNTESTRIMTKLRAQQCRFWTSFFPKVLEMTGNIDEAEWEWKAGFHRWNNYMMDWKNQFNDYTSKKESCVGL
Procedure: (§1) The AChE and BuChE inhibitory activities of the synthesised compounds were evaluated using the Ellman assay with slight modification. AChE from 5% rat cortex homogenate or human erythrocytes (Sigma Co.). BuChE from rat serum or human serum (Sigma Co.).

Aβ1–42 [4] = target: T3, Aβ1–42 (Homo sapiens, UniProt P05067); assay: Cu^2+-induced Aβ1–42 aggregation, ThT fluorescence; format: biochemical; conditions: tested compounds and Aβ1–42 25 μM
T3 sequence (P05067 672-713): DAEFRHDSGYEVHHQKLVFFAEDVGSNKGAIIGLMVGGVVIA
Procedure: Curcumin was also tested as a referenced compound.
(§2) The Thioflavin T-based flurometric assay was employed to test the inhibition potency on self-induced/Cu^2+-induced Aβ1-42 aggregation.

huAChE [5] = target: T1, huAChE; assay: biochemical; format: biochemical; set-up: AChE from 5% rat cortex homogenate or human erythrocytes (Sigma Co.); purchased Sigma Co; host or cells: human erythrocytes; conditions: for SI: Selectivity Index = IC50 (BuChE)/IC50 (AChE), human enzymes; for IC50: from human erythrocytes, read-out: IC50 ± SD huAChE
Procedure: as §1

ratBuChE = target: T4, ratBuChE (Rattus norvegicus, UniProt Q9JKC1); assay: ratBuChE inhibition, modified Ellman's method; format: biochemical
T4 construct: BuChE from rat serum or human serum (Sigma Co.); from tissue; host or cells: rat serum
T4 sequence (Q9JKC1 24-597): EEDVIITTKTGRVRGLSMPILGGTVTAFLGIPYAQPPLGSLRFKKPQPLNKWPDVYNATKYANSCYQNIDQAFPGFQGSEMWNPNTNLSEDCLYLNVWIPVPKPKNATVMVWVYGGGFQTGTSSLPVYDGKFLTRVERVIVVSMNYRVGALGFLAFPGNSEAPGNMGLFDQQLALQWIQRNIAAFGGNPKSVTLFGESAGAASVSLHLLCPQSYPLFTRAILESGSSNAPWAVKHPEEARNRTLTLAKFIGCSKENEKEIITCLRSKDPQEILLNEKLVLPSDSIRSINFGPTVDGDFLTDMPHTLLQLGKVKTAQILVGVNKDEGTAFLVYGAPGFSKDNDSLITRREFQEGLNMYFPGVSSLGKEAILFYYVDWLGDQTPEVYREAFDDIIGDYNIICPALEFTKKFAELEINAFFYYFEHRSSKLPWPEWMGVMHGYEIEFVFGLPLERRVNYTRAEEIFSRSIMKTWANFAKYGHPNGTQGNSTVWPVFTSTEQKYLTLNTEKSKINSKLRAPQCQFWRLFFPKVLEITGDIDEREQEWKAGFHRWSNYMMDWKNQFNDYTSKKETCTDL
Procedure: as §1

[6] = for ORAC: Trolox as standard
Procedure: The skeleton compounds naringenin and apigenin were also evaluated for comparison purposes, and vitamin E analogue Trolox was used as a standard.
The antioxidant potency of target compounds was tested using an oxygen radical absorbance capacity fluorescein (ORAC-FL) assay.

ratAChE = target: T5, ratAChE (Rattus norvegicus, UniProt P37136); assay: biochemical; conditions: for SI: Selectivity Index = IC50 (BuChE)/IC50 (AChE), rat enzymes; for IC50: from 5% rat cortex homogenate, read-out: IC50 ± SD ratAChE
T5 construct: AChE from 5% rat cortex homogenate or human erythrocytes (Sigma Co.); from tissue; host or cells: 5% rat cortex homogenate
T5 sequence (P37136 32-614): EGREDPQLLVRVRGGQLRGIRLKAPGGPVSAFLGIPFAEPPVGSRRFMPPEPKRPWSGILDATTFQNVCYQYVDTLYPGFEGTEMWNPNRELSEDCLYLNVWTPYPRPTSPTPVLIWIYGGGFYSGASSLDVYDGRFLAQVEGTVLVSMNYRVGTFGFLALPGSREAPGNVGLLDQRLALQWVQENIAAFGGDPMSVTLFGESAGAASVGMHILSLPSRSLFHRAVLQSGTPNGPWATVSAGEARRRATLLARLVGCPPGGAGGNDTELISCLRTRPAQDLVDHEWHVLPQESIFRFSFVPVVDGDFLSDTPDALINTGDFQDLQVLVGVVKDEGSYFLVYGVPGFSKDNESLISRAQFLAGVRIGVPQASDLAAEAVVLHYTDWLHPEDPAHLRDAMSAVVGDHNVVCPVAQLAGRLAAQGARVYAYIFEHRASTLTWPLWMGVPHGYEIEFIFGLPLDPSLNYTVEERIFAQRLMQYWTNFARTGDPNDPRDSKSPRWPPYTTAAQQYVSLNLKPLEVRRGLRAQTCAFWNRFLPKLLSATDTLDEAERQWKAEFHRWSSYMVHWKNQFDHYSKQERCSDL
Procedure: as §1

AChE PAS = AChE PAS (Homo sapiens, UniProt P22303); assay: biochemical; format: binding
Sequence of AChE PAS (P22303 32-614): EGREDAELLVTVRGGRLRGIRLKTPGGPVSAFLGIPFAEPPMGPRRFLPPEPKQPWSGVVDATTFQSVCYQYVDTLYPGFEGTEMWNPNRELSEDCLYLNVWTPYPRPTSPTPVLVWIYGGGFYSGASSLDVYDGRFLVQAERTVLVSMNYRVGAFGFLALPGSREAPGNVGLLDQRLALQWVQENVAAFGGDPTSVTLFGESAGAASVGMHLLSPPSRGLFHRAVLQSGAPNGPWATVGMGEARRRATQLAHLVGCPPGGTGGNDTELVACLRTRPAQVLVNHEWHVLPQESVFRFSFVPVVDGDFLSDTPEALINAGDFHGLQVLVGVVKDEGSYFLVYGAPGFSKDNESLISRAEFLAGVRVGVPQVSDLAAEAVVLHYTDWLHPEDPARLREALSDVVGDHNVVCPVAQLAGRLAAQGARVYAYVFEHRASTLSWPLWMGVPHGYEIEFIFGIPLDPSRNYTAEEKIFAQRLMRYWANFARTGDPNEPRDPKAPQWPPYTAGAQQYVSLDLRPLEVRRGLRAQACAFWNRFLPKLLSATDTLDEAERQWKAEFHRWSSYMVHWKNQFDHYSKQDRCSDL

PC12 cells = assay: Neuroprotective effect on H2O2-induced PC12 cells injury, MTT assay; format: cell-based; conditions: 100 μM H2O2, PC12 cells
[7] = tested on: TNF-α production in LPS-induced BV-2 cells; assay: TNF-α production in BV-2 cells, ELISA; format: cell-based; conditions: 1.0 μg/mL LPS
Procedure: Compounds 5f and 7k were selected to test the anti-inflammatory potency by measuring the production of inflammatory mediators TNF-α and NO in LPS-induced BV-2 cells[32]^,[33]. • Cytotoxicity of compounds 5f and 7k on BV-2 cells. Firstly, the cytotoxicity of compounds 5f and 7k were tested using an MTT assay. […] In inhibition of LPS-induced, NO production was tested through the Griess reaction method. […] In addition, to further investigate the effects of compounds 5f and 7k on LPS-induced TNF-α production in BV-2 cells, the enzyme-linked immunosorbent assay (ELISA) was used.
Inhibition of LPS-induced TNF-α production was evaluated with an enzyme-linked immunosorbent assay (ELISA). The methods of BV-2 cells culture, adding different concentrations of tested compounds 5f or 7k (1 μM, 3 μM and 9 μM) (10 μL) and LPS (1.0 μg/mL, 10 μL) and setting blank control group were the same as above in cytotoxicity assay. Then, the supernatant of the cell culture solution (50 μL) was added to a 96-well plate and the release of cytokine TNF-α was measured by ELISA according to the instructions of the ELISA kit.

Aβ1–42 [8] = target: T3, Aβ1–42; assay: Self-induced Aβ1–42 aggregation, Thioflavin T fluorescence; format: biochemical; conditions: tested compounds and Aβ1–42 25 μM
Source text: as §2

Row | Molecule | type of AChE inhibition (huAChE [1]) | Ki (huAChE [1]) [nM] | Prediction [2] | Pe [2] | reversibility of huAChE inhibition (huAChE [3]) | huAChE activity (% control) (huAChE [3]; 0.1*IC50, diluted) | huAChE activity restored (huAChE [3]) [%] | huAChE activity (% control) (huAChE [3]; 1*IC50, diluted) | huAChE activity (% control) (huAChE [3]; 1*IC50, undiluted) | huAChE activity increase when diluted to 0.1 × IC50 (huAChE [3]) [%] | IC50 (huBuChE) [µM] | SI (huAChE [5]) | IC50 (huAChE [5]) [nM] | ORAC [6] | SI (ratAChE) | IC50 (ratAChE) [nM] | TNF-α production ([7]; 1 μM) [pg/mL] | TNF-α production ([7]; 3 μM) [pg/mL] | TNF-α production ([7]; 9 μM) [pg/mL] | other results
1 | 7-((6-(benzyl(ethyl)amino)hexyl)oxy)-2–(4-((6-(benzyl(ethyl)amino)hexyl)oxy)phenyl)-5-hydroxychroman-4-one [Compound 7k] | mixed-type | 390 | CNS+ (Pe > 3.44 displayed high BBB permeation) | 11.7 ×10^−6 cm/s and 11.7 ± 0.54 ×10^−6 cm/s | reversible | 61.2 | 96.8 | 53.4 | 52.6 | 7.8 | 8.2 ± 0.37 | 14.4 | 570 ± 20 | 1.2 ± 0.02 μM of Trolox equivalent/μM of tested compound | 18.7 | 790 ± 60 | 1295 | 915 | 553 | Inhibition of Aβ1–42 aggregation, Cu^2+-induced (%) (Aβ1–42 [4]): 68.7 ± 0.46%; IC50 (ratBuChE; BuChE from rat serum, read-out: IC50 ± SD ratBChE): 14.8 ± 0.36 µM; Propidium iodide displacement from AChE PAS (% inhibition) (AChE PAS; 10 μM): 23.1 ± 1.2%; Propidium iodide displacement from AChE PAS (% inhibition) (AChE PAS; 50 μM): 34.3 ± 2.1%; cell viability (PC12 cells; compound 2.5 μM): 58.3%; cell viability (PC12 cells; compound 5.0 μM): 63.7%; cell viability (PC12 cells; compound 10.0 μM): 69.8%; inhibitory rate of TNF-α production ([7]; 1 μM): 23.8%; inhibitory rate of TNF-α production ([7]; 3 μM): 46.2%; inhibitory rate of TNF-α production ([7]; 9 μM): 67.5%; Inhibition of Aβ1–42 aggregation, Self-induced (%) (Aβ1–42 [8]): 43.8 ± 0.51%
2 | CCN(CCCCCOc1cc(O)c2c(c1)OC(c1ccc(O)cc1)CC2=O)Cc1ccccc1 (stereo not shown) [Compound 5f, 7-((5-(benzyl(ethyl)amino)pentyl)oxy)-5-hydroxy-2–(4-hydroxyphenyl)chroman-4-one] | mixed-type | 740 | CNS+ (Pe > 3.44 displayed high BBB permeation) | 6.9e-06 cm/s | reversible | 55.6 | 89.8 | 48.7 | 47.9 | 6.9 | 6.3 ± 0.74 | 6.9 | 910 ± 20 | 2.3 ± 0.03 μM of Trolox equivalent/μM of tested compound | 9.9 | 1700 ± 80 | 1130 | 728 | 394 | inhibition at 25 µM (Aβ1–42 [4]): 73.5 ± 0.25%; IC50 (ratBuChE): 16.9 ± 0.27 µM; ORAC values [6]: 2.3 eq; inhibition at 10 µM (AChE PAS; 10 μM, read-out: Propidium iodide displacement from AChE PAS (% inhibition)): 25.7 ± 1.9%; inhibition at 50 µM (AChE PAS; 50 μM, read-out: Propidium iodide displacement from AChE PAS (% inhibition)): 36.9 ± 3.5%; viability at 2.5 µM (PC12 cells; Rattus norvegicus, PC-12, compound 2.5 μM, read-out: cell viability): 62.9%; viability at 5 µM (PC12 cells; Rattus norvegicus, PC-12, compound 5.0 μM, read-out: cell viability): 68.2%; viability at 10 µM (PC12 cells; Rattus norvegicus, PC-12, compound 10.0 μM, read-out: cell viability): 73.4%; inhibition at 1 µM ([7]; Mus musculus, BV-2, 1 μM, read-out: inhibitory rate of TNF-α production): 33.5%; inhibition at 3 µM ([7]; Mus musculus, BV-2, 3 μM, read-out: inhibitory rate of TNF-α production): 57.2%; inhibition at 9 µM ([7]; Mus musculus, BV-2, 9 μM, read-out: inhibitory rate of TNF-α production): 76.8%; inhibition at 25 µM (Aβ1–42 [8]): 62.1 ± 0.38%
